# Results reported in PubChem BioAssay AID1259407 (Chemical Carcinogenesis Research Information System (CCRIS), 2018).
# Activity calls are given as the source filed them. No rule for the calls is given here.
# System: CCRIS mutagenicity, Ames/micronucleus/aberration tests
# Assay: CCRIS mutagenicity studies
# [1] = Test System: AMES SALMONELLA TYPHIMURIUM, Strain/Indicator: TA98, Metabolic Activation: NONE, Method: STANDARD PLATE
# [2] = Test System: AMES SALMONELLA TYPHIMURIUM, Strain/Indicator: TA100, Metabolic Activation: NONE, Method: STANDARD PLATE
# [3] = Test System: AMES SALMONELLA TYPHIMURIUM, Strain/Indicator: TA1535, Metabolic Activation: NONE, Method: STANDARD PLATE
# [4] = Test System: AMES SALMONELLA TYPHIMURIUM, Strain/Indicator: TA1537, Metabolic Activation: NONE, Method: STANDARD PLATE
# [5] = Test System: AMES SALMONELLA TYPHIMURIUM, Strain/Indicator: TA98, Metabolic Activation: RAT, LIVER, S-9, AROCLOR 1254, Method: STANDARD PLATE
# [6] = Test System: AMES SALMONELLA TYPHIMURIUM, Strain/Indicator: TA100, Metabolic Activation: RAT, LIVER, S-9, AROCLOR 1254, Method: STANDARD PLATE
# [7] = Test System: AMES SALMONELLA TYPHIMURIUM, Strain/Indicator: TA1535, Metabolic Activation: RAT, LIVER, S-9, AROCLOR 1254, Method: STANDARD PLATE
# [8] = Test System: AMES SALMONELLA TYPHIMURIUM, Strain/Indicator: TA1537, Metabolic Activation: RAT, LIVER, S-9, AROCLOR 1254, Method: STANDARD PLATE
compound,measurement,setting,value
Nc1nc2c(ncn2[C@@H]2C=C[C@H](CO)C2)c(=O)[nH]1,mutagenic call,"Test System: AMES SALMONELLA TYPHIMURIUM, Strain/Indicator: TA98, Metabolic Activation: HAMSTER, LIVER, S-9, AROCLOR 1254 (10%), Method: STANDARD PLATE",inactive; negative
same,mutagenic call,[1],inactive; negative
same,mutagenic call,"Test System: AMES SALMONELLA TYPHIMURIUM, Strain/Indicator: TA98, Metabolic Activation: RAT, LIVER, S-9, AROCLOR 1254 (10%), Method: STANDARD PLATE",inactive; negative
same,mutagenic call,"Test System: AMES SALMONELLA TYPHIMURIUM, Strain/Indicator: TA100, Metabolic Activation: HAMSTER, LIVER, S-9, AROCLOR 1254 (10%), Method: STANDARD PLATE",inactive; negative
same,mutagenic call,[2],inactive; negative
same,mutagenic call,"Test System: AMES SALMONELLA TYPHIMURIUM, Strain/Indicator: TA100, Metabolic Activation: RAT, LIVER, S-9, AROCLOR 1254 (10%), Method: STANDARD PLATE",inactive; negative
same,mutagenic call,"Test System: AMES SALMONELLA TYPHIMURIUM, Strain/Indicator: TA1535, Metabolic Activation: HAMSTER, LIVER, S-9, AROCLOR 1254 (10%), Method: STANDARD PLATE",inactive; negative
same,mutagenic call,[3],inactive; negative
same,mutagenic call,"Test System: AMES SALMONELLA TYPHIMURIUM, Strain/Indicator: TA1535, Metabolic Activation: RAT, LIVER, S-9, AROCLOR 1254 (10%), Method: STANDARD PLATE",inactive; negative
same,mutagenic call,"Test System: AMES SALMONELLA TYPHIMURIUM, Strain/Indicator: TA1537, Metabolic Activation: HAMSTER, LIVER, S-9, AROCLOR 1254 (10%), Method: STANDARD PLATE",inactive; negative
same,mutagenic call,[4],inactive; negative
same,mutagenic call,"Test System: AMES SALMONELLA TYPHIMURIUM, Strain/Indicator: TA1537, Metabolic Activation: RAT, LIVER, S-9, AROCLOR 1254 (10%), Method: STANDARD PLATE",inactive; negative
same,mutagenic call,"Test System: AMES SALMONELLA TYPHIMURIUM, Strain/Indicator: TA1538, Metabolic Activation: HAMSTER, LIVER, S-9, AROCLOR 1254 (10%), Method: STANDARD PLATE",inactive; negative
same,mutagenic call,"Test System: AMES SALMONELLA TYPHIMURIUM, Strain/Indicator: TA1538, Metabolic Activation: NONE, Method: STANDARD PLATE",inactive; negative
same,mutagenic call,"Test System: AMES SALMONELLA TYPHIMURIUM, Strain/Indicator: TA1538, Metabolic Activation: RAT, LIVER, S-9, AROCLOR 1254 (10%), Method: STANDARD PLATE",inactive; negative
same,mutagenic call,"Test System: MOUSE LYMPHOMA, Strain/Indicator: L5178Y (TK+/TK-), Metabolic Activation: NONE, Method: SUSPENSION/PLATE",inactive; negative. reevaluation of results: inconclusive
same,mutagenic call,"Test System: MOUSE LYMPHOMA, Strain/Indicator: L5178Y (TK+/TK-), Metabolic Activation: RAT, LIVER, S-9, AROCLOR 1254, Method: SUSPENSION/PLATE",active; positive; reevaluation of results: positive
same,mutagenic call,"Test System: Mouse lymphoma, Strain/Indicator: L5178Y (tk+/tk-), Metabolic Activation: None, Method: Suspension/plate",inactive; negative
same,mutagenic call,"Test System: Mouse lymphoma, Strain/Indicator: L5178Y (tk+/tk-), Metabolic Activation: Rat, Liver, S-9, Aroclor 1254, Method: Suspension/plate",inactive; negative
CN(C)CC/C=C1\c2ccccc2COc2ccccc21,mutagenic call,[1],inactive; negative
same,mutagenic call,[5],inactive; negative
same,mutagenic call,[2],inactive; negative
same,mutagenic call,[6],inactive; negative
same,mutagenic call,[3],inactive; negative
same,mutagenic call,[7],inactive; negative
same,mutagenic call,[4],inactive; negative
same,mutagenic call,[8],inactive; negative
O=S(=O)(Oc1ccc(Cl)cc1Cl)c1cccc2cccnc12,mutagenic call,[1],inactive; negative
same,mutagenic call,[5],active; positive
same,mutagenic call,[2],inactive; negative
same,mutagenic call,[6],active; positive
same,mutagenic call,[3],inactive; negative
same,mutagenic call,[7],inactive; negative
same,mutagenic call,[4],inactive; negative
same,mutagenic call,[8],inactive; negative
CC(C)([CH2][Sn]([CH2]C(C)(C)c1ccccc1)([CH2]C(C)(C)c1ccccc1)[O][Sn]([CH2]C(C)(C)c1ccccc1)([CH2]C(C)(C)c1ccccc1)[CH2]C(C)(C)c1ccccc1)c1ccccc1,mutagenic call,"End Point: In vitro chromosomal aberrations, Test System: Human lymphocytes, Metabolic Activation: None",inactive; negative
same,mutagenic call,"End Point: In vitro chromosomal aberrations, Test System: Human lymphocytes, Metabolic Activation: Rat, Liver, S-9, Aroclor 1254",inactive; negative
same,mutagenic call,"End Point: In vivo micronucleus, Test System: Bone marrow polychromatic erythrocytes, Species: Mouse, Strain/Sex: Crl:CD-1(ICR)BR/Male and female, Route: Oral",inactive; negative
same,mutagenic call,"End Point: UDS, Test System: Rat primary hepatocytes, Metabolic Activation: None, Method: Autoradiography",inactive; negative
same,mutagenic call,"Test System: Chinese hamster ovary cells, Strain/Indicator: CHO cells (HPRT)/6-Thioguanine, Metabolic Activation: None, Method: Standard plate",inactive; negative
same,mutagenic call,"Test System: Chinese hamster ovary cells, Strain/Indicator: CHO cells (HPRT)/6-Thioguanine, Metabolic Activation: Rat, Liver, S-9, Aroclor 1254, Method: Standard plate",inactive; negative
CC(=O)Nc1ccc(OCC(O)CNC(C)C)cc1 (stereo unspecified),mutagenic call,"Test System: AMES SALMONELLA TYPHIMURIUM, Strain/Indicator: TA98, Metabolic Activation: NONE",inactive; negative
same,mutagenic call,[1],inactive; negative
same,mutagenic call,"Test System: AMES SALMONELLA TYPHIMURIUM, Strain/Indicator: TA98, Metabolic Activation: RAT, LIVER, S-9, AROCLOR 1254",inactive; negative
same,mutagenic call,[5],inactive; negative
same,mutagenic call,"Test System: AMES SALMONELLA TYPHIMURIUM, Strain/Indicator: TA100, Metabolic Activation: NONE",inactive; negative
same,mutagenic call,[2],inactive; negative
same,mutagenic call,"Test System: AMES SALMONELLA TYPHIMURIUM, Strain/Indicator: TA100, Metabolic Activation: RAT, LIVER, S-9, AROCLOR 1254",inactive; negative
same,mutagenic call,[6],inactive; negative
same,mutagenic call,"Test System: AMES SALMONELLA TYPHIMURIUM, Strain/Indicator: TA1535, Metabolic Activation: NONE",inactive; negative
same,mutagenic call,"Test System: AMES SALMONELLA TYPHIMURIUM, Strain/Indicator: TA1535, Metabolic Activation: RAT, LIVER, S-9, AROCLOR 1254",inactive; negative
same,mutagenic call,"Test System: AMES SALMONELLA TYPHIMURIUM, Strain/Indicator: TA1537, Metabolic Activation: NONE",inactive; negative
same,mutagenic call,"Test System: AMES SALMONELLA TYPHIMURIUM, Strain/Indicator: TA1537, Metabolic Activation: RAT, LIVER, S-9, AROCLOR 1254",inactive; negative
C/C=C/C=C/C,mutagenic call,"Test System: AMES SALMONELLA TYPHIMURIUM, Strain/Indicator: TA98, Metabolic Activation: NONE, Method: PREINCUBATION",inactive; negative
same,mutagenic call,"Test System: AMES SALMONELLA TYPHIMURIUM, Strain/Indicator: TA98, Metabolic Activation: S-9, Method: PREINCUBATION",inactive; negative
same,mutagenic call,"Test System: AMES SALMONELLA TYPHIMURIUM, Strain/Indicator: TA100, Metabolic Activation: NONE, Method: PREINCUBATION",inactive; negative
same,mutagenic call,"Test System: AMES SALMONELLA TYPHIMURIUM, Strain/Indicator: TA100, Metabolic Activation: S-9, Method: PREINCUBATION",inactive; negative
same,mutagenic call,"Test System: AMES SALMONELLA TYPHIMURIUM, Strain/Indicator: TA1535, Metabolic Activation: NONE, Method: PREINCUBATION",inactive; negative
same,mutagenic call,"Test System: AMES SALMONELLA TYPHIMURIUM, Strain/Indicator: TA1535, Metabolic Activation: S-9, Method: PREINCUBATION",inactive; negative
same,mutagenic call,"Test System: E.COLI, Strain/Indicator: WP2UVRA/PKM101, Metabolic Activation: NONE, Method: PREINCUBATION",inactive; negative
same,mutagenic call,"Test System: E.COLI, Strain/Indicator: WP2UVRA/PKM101, Metabolic Activation: S-9, Method: PREINCUBATION",inactive; negative
